Reference: patent US11312695B2, “Nutrients to enhance load-induced muscle hypertrophy” (The Regents of the University of California, priority 2020, dated 2022)

Target: T1, purified human SIRT1 (Homo sapiens, UniProt Q96EB6)
T1 sequence (Q96EB6 1-747): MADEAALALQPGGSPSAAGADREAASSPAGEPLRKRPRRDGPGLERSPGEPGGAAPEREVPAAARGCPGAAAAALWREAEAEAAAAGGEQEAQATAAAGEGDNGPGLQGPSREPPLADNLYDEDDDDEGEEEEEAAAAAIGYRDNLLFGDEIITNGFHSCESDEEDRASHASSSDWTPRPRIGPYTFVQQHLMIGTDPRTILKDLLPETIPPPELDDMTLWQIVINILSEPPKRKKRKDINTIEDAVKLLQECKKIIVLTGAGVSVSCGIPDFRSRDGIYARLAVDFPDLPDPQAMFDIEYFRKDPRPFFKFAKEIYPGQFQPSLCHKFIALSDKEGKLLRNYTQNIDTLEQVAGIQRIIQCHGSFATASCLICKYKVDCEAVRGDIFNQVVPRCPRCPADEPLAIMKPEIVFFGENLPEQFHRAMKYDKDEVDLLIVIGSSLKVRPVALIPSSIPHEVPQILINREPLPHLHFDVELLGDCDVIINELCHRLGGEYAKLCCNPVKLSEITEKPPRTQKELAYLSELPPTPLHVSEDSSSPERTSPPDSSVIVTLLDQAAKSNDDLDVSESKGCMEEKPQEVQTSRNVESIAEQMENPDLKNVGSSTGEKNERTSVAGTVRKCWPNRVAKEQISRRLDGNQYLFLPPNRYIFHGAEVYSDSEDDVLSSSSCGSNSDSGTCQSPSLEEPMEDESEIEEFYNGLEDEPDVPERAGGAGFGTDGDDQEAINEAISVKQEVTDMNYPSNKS
Experiment: SIRT1 inhibitor screen (mobility shift assay, p53 substrate)
Format: biochemical
Conditions: 2 ng/μl SIRT1, 3 μM p53 substrate; for inhibition at 5 µM / percent inhibition of SIRT1 at 5 μM: 5 μM compound; for inhibition at 5 µM: read-out: percent inhibition of SIRT1 at 5 μM; for inhibition at 50 µM / percent inhibition of SIRT1 at 50 μM: 50 μM compound; for inhibition at 50 µM: read-out: percent inhibition of SIRT1 at 50 μM
Experimental: The NatProd Collection library (MicroSource Discovery Systems, Inc. Gaylordsville, Conn.) in ten source plates was screened at two doses (50 μM and 5 μM final in the reaction mixture, duplicate for each dose). The inhibitory activity of the compounds was assessed against 2 ng/μ1 purified human SIRT1 using 3 μM p53 as a substrate. The assay was a mobility shift assay based on charge differences before and after electrophoretic separation of product from fluorescently labeled substrate read using a Caliper EZ Reader (Perkin Elmer, Boston, Mass.). All reactions took place in the presence of excess nicotinamide adenine dinucleotide and the known SIRT1 inhibitor suramin was used as a control.

Row | SMILES | inhibition at 5 µM [%] | inhibition at 50 µM [%] | percent inhibition of SIRT1 at 5 μM | percent inhibition of SIRT1 at 50 μM
1 | CC1=C(O)C(=O)C=C2C1=CC=C1[C@@]2(C)CC[C@@]2(C)[C@@H]3C[C@](C)(C(=O)O)CC[C@]3(C)CC[C@]12C [Celastrol] | 101 | 100 |  | 
2 | Cc1c(O)c(O)cc2c1CC=C1[C@@]2(C)CC[C@@]2(C)[C@@H]3C[C@](C)(C(=O)O)CC[C@]3(C)CC[C@]12C [Dihydrocelastrol] | 84 | 99 |  | 
3 | O=C(O[C@@H]1Cc2c(O)cc(O)cc2O[C@@H]1c1ccc(O)c(O)c1)c1cc(O)c(O)c(O)c1 [Epicatechin monogallate] |  |  | 66 | 99
4 | O=C(O[C@@H]1Cc2c(O)cc(O)cc2O[C@@H]1c1cc(O)c(O)c(O)c1)c1cc(O)c(O)c(O)c1 [Epigallocatechin-3-monogallate] |  |  | 72 | 99
